In paper PMC7761830, “Structure-Based Virtual Screening of Ultra-Large Library Yields Potent Antagonists for a Lipid GPCR” (Biomolecules, 2020):

Legend:
wild-type CysLT1R = target: T1, wild-type CysLT1R (Homo sapiens, UniProt Q9Y271); test: IP1 production assay, antagonist mode, co-stimulation with EC80 LTD4; format: cell-based; conditions: for inhibition at 30 µM: HEK293, compound 30 µM, LTD4 at EC80, HEK293, wild-type CysLT1R, read-out: inhibition of LTD4-induced IP1 production, single-concentration screen; for Emax: HEK293, read-out: CysLT1R (LTD4) % Max Inhibition ± SEM
T1 construct: expressed in transfected cells; host or cells: HEK293 (ATCC CRL-1573), transient transfection with Lipofectamine 3000
T1 sequence (Q9Y271 1-337): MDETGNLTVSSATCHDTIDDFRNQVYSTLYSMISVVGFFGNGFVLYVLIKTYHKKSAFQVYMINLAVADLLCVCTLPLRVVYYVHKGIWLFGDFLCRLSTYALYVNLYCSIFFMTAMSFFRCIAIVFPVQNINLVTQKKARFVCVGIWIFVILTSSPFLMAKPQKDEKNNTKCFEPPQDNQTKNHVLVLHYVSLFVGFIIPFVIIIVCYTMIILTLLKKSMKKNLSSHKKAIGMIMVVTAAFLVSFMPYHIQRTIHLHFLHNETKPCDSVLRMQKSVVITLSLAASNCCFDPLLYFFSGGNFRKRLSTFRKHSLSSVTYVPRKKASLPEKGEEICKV
Protocol: (§1) For this assay, we used the Cisbio IP-One kit as previously described. […] At 48 h post-transfection, the media was removed and the cells were washed with fresh Hank’s Balanced Salt Solution (HBSS). […] After compound stimulation, the cells were incubated for 1 h at 37 °C and stimulated with IP1-D2 and Ab-Crypt reagents in Lysis Buffer. The cells were then incubated at room temperature for an additional hour. […] Normalized data were plotted using either the three-parameter or four-parameter EC50/IC50 fits of GraphPad Prism 8 (San Diego). […] Data represent the means ± SEM of at least three independent experiments performed in quadruplicate.

wild-type CysLT2R = target: T2, wild-type CysLT2R (Homo sapiens, UniProt Q9NS75); test: as above; format: cell-based; conditions: for inhibition at 30 µM: HEK293, compound 30 µM, LTD4 at EC80, HEK293, wild-type CysLT2R, read-out: inhibition of LTD4-induced IP1 production, single-concentration screen; for Emax: HEK293, read-out: CysLT2R (LTD4) % Max Inhibition ± SEM
T2 construct: expressed in transfected cells; host or cells: HEK293 (ATCC CRL-1573), transient transfection with Lipofectamine 3000
T2 sequence (Q9NS75 1-346): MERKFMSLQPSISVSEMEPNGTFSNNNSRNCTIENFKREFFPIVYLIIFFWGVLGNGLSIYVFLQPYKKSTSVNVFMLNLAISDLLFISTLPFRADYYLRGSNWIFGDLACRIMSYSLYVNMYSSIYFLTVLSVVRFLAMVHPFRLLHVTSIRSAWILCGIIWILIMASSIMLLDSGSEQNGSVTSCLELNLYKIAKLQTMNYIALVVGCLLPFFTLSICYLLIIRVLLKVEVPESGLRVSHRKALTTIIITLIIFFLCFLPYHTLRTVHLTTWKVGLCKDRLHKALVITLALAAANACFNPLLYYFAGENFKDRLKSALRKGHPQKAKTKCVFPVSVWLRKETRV
Protocol: as §1

Row | Compound | remaining activity at 30 µM (wild-type CysLT1R) | remaining activity at 30 µM (wild-type CysLT2R) | also measured
1 | Cc1cccc(-n2nnc(C(=O)Nc3ccc4c(c3)NC(=O)CO4)c2C)c1 [BRI-12333] | 77.5% | 70.5% | 
2 | O=C(O)C1CN(C(=O)Nc2cc(Br)ccn2)CCO1 (stereo not drawn) [BRI-12436] | 93.9% | 67.5% | 
3 | Cn1c(Cn2cc(-c3nnco3)ccc2=O)nc2cc(Cl)ccc21 [BRI-12337] | 72% | 91.3% | 
4 | Cc1ccnc(-c2ccc(NC(=O)COC(C)C)cc2)n1 [BRI-12422] | 79.8% | 76.5% | 
5 | O=C(O)CNC(=O)c1ccc(NC(=O)COCc2ccccc2)cc1 [BRI-12473] | 86.5% | 66.6% | 
6 | O=C(Nc1ccc2c(c1)COC2)N1CCCCC1c1cn[nH]c1 (stereo not drawn) [BRI-12312] | 77.4% | 87.2% | 
7 | CC(C)(C)CNC(=O)c1ccc(C(=O)Nc2ccccc2CC(=O)O)cc1 [BRI-12407] | 83% | 70.4% | 
8 | O=C(O)c1cccc(NC(=O)c2ccc(N3CCNC3=O)cc2)c1 [BRI-12457] | 83.8% | 67.4% | 
9 | O=C(O)CC(NS(=O)(=O)Cc1cccc2cccnc12)c1cnn(-c2ccccc2)c1 (stereo not drawn) [BRI-12460] | 83.9% | 73.5% | 
10 | CN(CC(=O)O)C(=O)c1ccc(-c2ccc(NC(=O)C(C)(C)C)nc2)o1 [BRI-12450] | 57.6% | 41.1% | inhibition at 30 µM (wild-type CysLT1R): ≥ 50%; Emax (wild-type CysLT1R): 44 ± 25%; inhibition at 30 µM (wild-type CysLT2R): ≥ 50%; Emax (wild-type CysLT2R): 24 ± 8%
11 | CCN(CC)C(=O)c1ccc(C(=O)OCc2cc(C(C)=O)no2)cc1 [BRI-12434] | 57.6% | 62% | 
12 | CC1(c2ccc(C(=O)Nc3nc(-c4ccccc4)cs3)cc2)NC(=O)NC1=O (stereo not drawn) [BRI-12328] | 21% | 38.1% | inhibition at 30 µM (wild-type CysLT1R): ≥ 50%; Emax (wild-type CysLT1R): 33 ± 8%; inhibition at 30 µM (wild-type CysLT2R): ≥ 50%; Emax (wild-type CysLT2R): 5 ± 7%
13 | O=C(O)CCNC(=O)c1nccnc1C(=O)Nc1ccc(Cl)cc1 [BRI-12465] | 84.7% | 59.9% | 
14 | O=C(O)CCN(CC1CCCO1)C(=O)c1cc(-c2ccccc2Cl)[nH]n1 (stereo not drawn) [BRI-12320] | 81.4% | 90.5% | 
15 | COc1cccc(CC(=O)N[C@H]2[C@@H]3CC[C@@H](C3)[C@H]2C(=O)O)c1Cl [BRI-12468] | 89.1% | 64.6% | 
16 | Cc1cccc(COc2ccc(CNS(=O)(=O)N(C)CCC(=O)O)cc2)c1 [BRI-12411] | 55.9% | 57.3% | Ki (wild-type CysLT1R): 720 ± 160 nM; inhibition at 30 µM (wild-type CysLT1R): ≥ 50%; Emax (wild-type CysLT1R): 66 ± 18%; extent of inhibition of LTD4-mediated response at CysLT1R (in words) (wild-type CysLT1R; antagonist mode, 1.5 to 100 µM): partial antagonism
17 | CC(=O)c1cc2c(cc1NC(=O)COc1ccc(Cl)cc1C(N)=O)OCO2 [BRI-12343] | 73.7% | 88.9% | 
18 | COc1ccccc1C(=O)NCC1CN(C(=O)c2ccc3[nH]c(=O)n(C)c3c2)C1 [BRI-12461] | 87.6% | 58.4% | 
19 | NC(=O)NC(=O)COC(=O)c1ccccc1Nc1cccc(C(F)(F)F)c1 [BRI-12349] | 80% | 70.5% | 
20 | CC1CC(C(=O)O)CN(C(=O)Nc2cccc(NC(=O)c3ccccc3)c2)C1 (stereo not drawn) [BRI-12308] | 95.6% | 101% | 
21 | C[C@@H]1C[C@H](C(=O)Nc2cccc(NC(=O)c3cccs3)c2)O[C@H]1C(=O)O [BRI-12306] | 81.2% | 112% | 
22 | CN(CC(=O)Nc1ccc2[nH]ncc2c1)C1=NS(=O)(=O)c2ccccc21 [BRI-12331] | 84.3% | 92.8% | 
23 | O=C(O)COc1ccc(C=Cc2ccc3cccc(O)c3n2)cc1 [BRI-12340] | 70.2% | 78.9% | 
24 | CN(CCOc1ccc(OCc2ccccc2)cc1)C(=O)c1cc(=O)[nH]c2ccc(F)cc12 [BRI-12404] | 83.8% | 67.3% | 

Row | Compound | remaining activity at 30 µM (wild-type CysLT1R) | remaining activity at 30 µM (wild-type CysLT2R) | also measured
25 | O=C(O)CNC(=O)c1ccc(S(=O)(=O)Nc2ccc3sncc3c2)cc1 [BRI-12413] | 80% | 49.5% | inhibition at 30 µM (wild-type CysLT2R): ≥ 50%; Emax (wild-type CysLT2R): 5 ± 6%
26 | C=C1c2ccccc2C(=O)N1CCC(=O)Nc1cc(C(N)=O)cc(C(N)=O)c1 [BRI-12353] | 83.4% | 96.8% | 
27 | Cc1ccc(C(NS(=O)(=O)c2ccc(C(=O)NCC(=O)O)cc2)c2ccccn2)cc1 (stereo not drawn) [BRI-12437] | 91.9% | 80.5% | 
28 | CC1=C(C(=O)Nc2ccccc2)C(c2ccncc2)n2nc(CCCO)nc2N1 (stereo not drawn) [BRI-12325] | 76.1% | 79.3% | 
29 | NC(=O)c1ncn(C2CCCN(c3nc(-c4ccccc4)cs3)C2)n1 (stereo not drawn) [BRI-12455] | 84.2% | 71.1% | 
30 | NC(=O)Nc1ccc(C(=O)NCc2c(C(=O)O)oc3ccccc23)cc1 [BRI-12447] | 85.5% | 52.9% | 
31 | CNC(=O)c1cccc(NC(=O)CN2c3cccc4cccc(c34)S2(=O)=O)c1 [BRI-12322] | 69.8% | 79.1% | 
32 | Cc1ccc2ncc(C(=O)NC3CN(C(=O)c4cc(C(N)=O)cs4)C3)n2c1 [BRI-12466] | 67.7% | 39% | inhibition at 30 µM (wild-type CysLT2R): ≥ 50%; Emax (wild-type CysLT2R): 12 ± 6%
33 | NC(=O)CNC(=O)c1ccc(CNC(=O)c2cc3ccc(F)cc3[nH]c2=O)cc1 [BRI-12453] | 88.3% | 49.5% | inhibition at 30 µM (wild-type CysLT2R): ≥ 50%; Emax (wild-type CysLT2R): 3 ± 7%
34 | O=C(O)CNC(=O)c1ccc(NC(=O)C2Cc3cc(F)ccc3O2)cc1 (stereo not drawn) [BRI-12329] | 88.8% | 87.8% | 
35 | CCOc1ccc(NC(=O)c2cccn3nnnc23)c(C(N)=O)c1 [BRI-12469] | 80.7% | 52.8% | 
36 | CC(C)NC(=O)Nc1ccc(C(=O)Nc2ccc(OCC(=O)O)c(Cl)c2)cc1 [BRI-12420] | 91.7% | 64.2% | 
37 | O=C(O)Cn1ccc(NC(=O)CNC(=O)Cc2cccc(F)c2)n1 [BRI-12471] | 88.2% | 50.7% | 
38 | O=C(Nc1ccccc1C(=O)N1CCN2C(=O)NC(=O)C2C1)c1cccs1 (stereo not drawn) [BRI-12307] | 84.6% | 110% | 
39 | O=C(Nc1cnc2[nH]ccc2c1)c1cnc2c(c1)c(=O)[nH]c(=O)n2Cc1ccccc1 [BRI-12401] | 89.5% | 35.6% | inhibition at 30 µM (wild-type CysLT2R): ≥ 50%; Emax (wild-type CysLT2R): 19 ± 15%
40 | O=C(NCC(F)(F)F)c1cccc(NC(=O)C2C3C=CC(C3)C2C(=O)O)c1 (stereo not drawn) [BRI-12346] | 66.6% | 90.6% | 
41 | NC(=O)CN1CCN(C(=O)c2ccccc2NC(=O)c2ccc(Cl)cc2)CC1=O [BRI-12454] | 77.4% | 48.4% | inhibition at 30 µM (wild-type CysLT2R): ≥ 50%; Emax (wild-type CysLT2R): 6 ± 10%
42 | O=C(CCCc1ccc2[nH]c(=O)[nH]c2c1)Nc1ccc(C(=O)Nc2cccnc2)cc1 [BRI-12415] | 85.1% | 56.8% | 
43 | O=C(O)CCC(NC(=O)c1cccc(C(F)(F)F)c1)c1ccccc1 (stereo not drawn) [BRI-12412] | 91.4% | 63.4% | 
44 | O=C(O)COc1cccc(CNC(=O)c2cnc(-c3ncccn3)s2)c1 [BRI-12427] | 78.7% | 42.4% | inhibition at 30 µM (wild-type CysLT2R): ≥ 50%; Emax (wild-type CysLT2R): 15 ± 13%
45 | O=C(O)C(Cc1c[nH]c2ncccc12)NS(=O)(=O)c1csc(-c2ccc(F)cc2)n1 (stereo not drawn) [BRI-12439] | 88.3% | 72.4% | 
46 | O=C(NC(C(=O)O)c1ccccc1F)c1ccc(Cl)c(NC(=O)c2cccs2)c1 (stereo not drawn) [BRI-12403] | 89.5% | 72% | 
47 | O=C(O)CC(CNS(=O)(=O)c1ccc(Oc2ccc(Cl)cc2)cc1)C(=O)O (stereo not drawn) [BRI-12421] | 82.6% | 57.3% | 
48 | O=C(O)CNC(=O)c1ccc(NC(=O)CCc2cccc(F)c2F)cc1 [BRI-12441] | 88.3% | 70.9% | 
